In PMC8470702 (Pharmaceuticals, 2021):
Where “and” joins values, the source holds several entries; their conditions need not be identical. Equal entries are not always repeated.

Key:
Daudi cells = assay: Cytotoxicity assay (MTT), 72 h; assay type: cell-based, human; conditions: for IC50: Homo sapiens, Daudi, 72 h of treatment, MTT; for Selectivity index Daudi: IC50 of normal (BALB/3T3) vs. cancer cells (Daudi)
Description: (§1) Then, the tested compounds were diluted in culture medium (RPMI1640 + OptiMEM) to reach the final concentrations. Then, cells were treated for 72 h with derivatives at concentrations of […] (100 μL of each concentration per well), or with culture medium alone as a cells control or medium control.
(§2) Each compound in each concentration was tested in triplicate in a single experiment, which was repeated 3–5 times.
(§3) MTT: 20 µL MTT solution (5 mg/mL of PBS, Merck) was added to wells and plates were placed in an incubator. […] The optical density of individual samples was read at a wavelength of 570 nm using a plate reader (Synergy H4 Hybrid Reader, BioTek).

MV4-11 cells = assay: Cytotoxicity assay (MTT), 72 h; assay type: cell-based, human; conditions: for IC50: Homo sapiens, MV4-11, 72 h of treatment, MTT; for Selectivity index MV4-11: IC50 of normal (BALB/3T3) vs. cancer cells (MV4-11)
Description: as §1, §2, §3

[1] = test system: HDAC homologues (HDACs), HeLa cell extract; assay: Fluorimetric HDACs inhibition kit (Histone Deacetylase Activity Assay, HeLa cell extract); conditions: for IC50: read-out: Inhibition of HDAC homologues (HDACs) IC50; for HDAC activity at 2 µM [%]: remaining HDACs activity at 2 µM compound
Description: The HDACAA kit is based on a two-step enzymatic reaction. The substrate for the reaction is a substituted peptide with an acetylated lysine residue and a bound fluorescent group. The first step of the reaction is deacetylation of the acetylated lysine side chain by the HDAC containing sample (HeLa cell extract). The second step is the cleavage of the deacetylated substrate with the developer solution and the release of the free highly fluorescent group. […] The plate was incubated at 30 °C for 30 min. Next, 10 µL of Developer Solution was added to each well and incubated at room temperature for 10 min. The fluorescence was measured with the fluorimeter plate reader (SpectraMax iD3, Molecular Devices): excitation wavelength of 360 nm and emission wavelength of 460 nm. The following concentrations were used: 0.1, 0.5, 1, and 2 µM. Each compound in each concentration was tested in triplicate. All calculations were performed using Origin 9.0 software.

HDAC8 = molecular target: T1, HDAC8 (Homo sapiens, UniProt Q9BY41); assay: Histone Deacetylase 8 Activity Assay; assay type: biochemical; conditions: read-out: Inhibition of HDAC8 activity IC50
T1 construct: purchased Sigma
T1 sequence (Q9BY41 1-377): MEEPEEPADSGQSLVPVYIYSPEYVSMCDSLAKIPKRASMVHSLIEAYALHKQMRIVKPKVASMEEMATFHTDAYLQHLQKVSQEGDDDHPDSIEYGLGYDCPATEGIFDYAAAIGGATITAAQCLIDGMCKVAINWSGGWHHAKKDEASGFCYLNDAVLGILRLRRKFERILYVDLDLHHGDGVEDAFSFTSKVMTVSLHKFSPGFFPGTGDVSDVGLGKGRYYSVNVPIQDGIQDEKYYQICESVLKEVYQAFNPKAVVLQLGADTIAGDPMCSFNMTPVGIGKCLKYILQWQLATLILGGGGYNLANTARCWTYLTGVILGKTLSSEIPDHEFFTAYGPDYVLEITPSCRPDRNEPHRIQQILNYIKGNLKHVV
Description: In order to measure histone deacetylase 8 activity, Histone Deacetylase 8 Activity Assay (Sigma) was used. The HDAC8 acts with the supplied Developer to deacetylate and then cleave the HDAC8 Substrate (R-H-K(Ac)-K(Ac)-AFC). The reaction reagents were added to the wells of a 96-well plate according to Table 7. […] The fluorescence was measured with the fluorimeter plate reader: excitation wave-length of 380 nm and emission wavelength of 500 nm. The following concentrations were used: 0.5, 1, 1.5, 2, 3, and 4 µM. Each compound in each concentration was tested in triplicate. All calculations were performed using Origin 9.0 software.

A549 cells = assay: Cytotoxicity assay (SRB), 72 h; assay type: cell-based, human; conditions: for IC50: Homo sapiens, A549, 72 h of treatment, SRB; for Selectivity index A549: IC50 of normal (BALB/3T3) vs. cancer cells (A549)
Description: as §1, §2
(§4) SRB: 50 µL 50% cold trichloroacetic acid (TCA, Merck) solution was added to each wells and incubated for 1 h at 4 °C. The plates were rinsed with distilled water, and after drying on a paper towel, 50 µL of a 0.1% (w/v) solution of sulforodamine B (Merck) in 1% acetic acid (POCH, Poland) was added and incubated for 30 min at room temperature. Subsequently, the plates were washed with 1% (v/v) acetic acid and after desiccation of excess acid, 150 µL of 10 mM TRIS (Merck) was added. After another 30 min of incubation at RT, the optical density of individual samples was read at 540 nm using a plate reader (Synergy H4 Hybrid Reader, BioTek).

MCF-7 cells = assay: Cytotoxicity assay (SRB), 72 h; assay type: cell-based, human; conditions: for IC50: Homo sapiens, MCF7, 72 h of treatment, SRB; for Selectivity index MCF-7: IC50 of normal (BALB/3T3) vs. cancer cells (MCF-7)
Description: as §1, §2, §4

BALB/3T3 cells = assay: Cytotoxicity assay (SRB), 72 h; conditions: Mus musculus, BALB/3T3, 72 h, read-out: IC50 BALB/3T3
Description: Then, the tested compounds were diluted in culture medium (RPMI1640 + OptiMEM) to reach the final concentrations. Then, cells were treated for 72 h with derivatives at concentrations of 50, 10, 2, 0.4, and 0.008 µM (100 μL of each concentration per well), or with culture medium alone as a cells control or medium control.

Row | Compound | IC50 (Daudi cells) | IC50 (MV4-11 cells) | melting point | IC50 [1] | HDAC activity at 2 µM [%] [1] | IC50 (HDAC8) | Selectivity index Daudi (Daudi cells) | Selectivity index MV4-11 (MV4-11 cells) | IC50 (A549 cells) | Selectivity index A549 (A549 cells) | IC50 (MCF-7 cells) | Selectivity index MCF-7 (MCF-7 cells) | IC50 (BALB/3T3 cells)
1 | O=C(CCCCCCN1C(=O)c2ccccc2C=Cc2ccccc21)NO [Compound 7l] | 1440 ± 610 nM | 1570 ± 120 nM | 151 to 152 °C | 1240 ± 155 nM | 44.7 ± 4.4% |  |  |  |  |  |  |  | 
2 | CN1C(=O)c2ccccc2N(CCC(=O)NO)C(=O)c2ccccc21 [Compound 7b] | > 50000 nM | > 50000 nM | 105 to 106 °C |  | 84.1 ± 2.3% |  |  |  |  |  |  |  | 
3 | CN1C(=O)c2ccccc2N(CCCCCC(=O)NO)C(=O)c2ccccc21 [Compound 7e] | 3030 ± 550 nM | 2330 ± 640 nM | 155 to 156 °C | 1960 ± 105 nM | 48.7 ± 1.0% | 5670 ± 640 nM |  |  |  |  |  |  | 
4 | O=C(CCCCCN1C(=O)c2ccccc2C(=O)N(Cc2ccccc2)c2ccccc21)NO [Compound 7o] | 3520 ± 800 nM | 3550 ± 750 nM | 172 to 173 °C |  | 64.5 ± 2.1% |  |  |  |  |  |  |  | 
5 | CN1C(=O)c2ccccc2N(CCCC(=O)NO)C(=O)c2ccccc21 [Compound 7c] | > 50000 nM | > 50000 nM | 190 to 191 °C |  | 75.4 ± 3.0% |  |  |  |  |  |  |  | 
6 | COc1cc2c(cc1OC)N(CCCCCC(=O)NO)C(=O)c1ccccc1N(C)C2=O [Compound 7s] | 944 ± 167 nM | 692 ± 110 nM | 82 to 83 °C | 914 nM and 875 nM | 35.9 ± 0.8% |  | 12.75 | 17.4 | 18000 ± 5770 nM | 0.67 | 4240 ± 1030 nM | 2.84 | 12000 ± 5900 nM
7 | CN1C(=O)c2cc(Br)ccc2N(CCCCCC(=O)NO)C(=O)c2ccccc21 [Compound 7r] | 785 ± 246 nM | 603 ± 132 nM | 76 to 77 °C | 875 nM and 914 nM | 31.5 ± 7.1% |  | 4.29 | 5.59 | 4610 ± 380 nM | 0.73 | 2720 ± 570 nM | 1.24 | 3370 ± 870 nM
8 | CN1C(=O)c2ccccc2N(CCCCC(=O)NO)C(=O)c2ccccc21 [Compound 7d] | 9600 ± 2100 nM | 7580 ± 2500 nM | 217 to 218 °C |  | 64.6 ± 3.6% |  |  |  |  |  |  |  | 
9 | O=C(CCCCCN1C(=O)c2ccccc2C=Cc2ccccc21)NO [Compound 7k] | 460 ± 122 nM | 220 ± 21 nM |  | 183 ± 15 nM | 15.7 ± 1.3% | 3370 ± 330 nM | 2.78 | 5.82 | 1270 ± 420 nM | 1.01 | 618 ± 95 nM | 2.07 | 1280 ± 150 nM
10 | O=C(CN1C(=O)c2ccccc2C=Cc2ccccc21)NO [Compound 7g] | 17300 ± 6200 nM | 34000 ± 750 nM | 119 to 120 °C |  | 83.6 ± 4.2% |  |  |  |  |  |  |  | 
11 | O=C(CCCCN1C(=O)c2ccccc2C=Cc2ccccc21)NO [Compound 7j] | 3470 ± 660 nM | 5300 ± 1360 nM | 175 to 176 °C |  | 63.3 ± 0.5% |  |  |  |  |  |  |  | 
12 | CN1C(=O)c2cc3ccccc3cc2N(CCCCCC(=O)NO)C(=O)c2cc(Cl)ccc21 [Compound 7t] | 137 ± 40 nM | 93 ± 9 nM | 161 to 162 °C | 266 ± 14 nM | 19.9 ± 1.6% | 1950 ± 170 nM | 5.04 | 7.42 | 1050 ± 70 nM | 0.66 | 368 ± 15 nM | 1.88 | 690 ± 50 nM
13 | O=C(CCCN1C(=O)c2ccccc2C=Cc2ccccc21)NO [Compound 7i] | > 50000 nM | > 50000 nM | 172 to 173 °C |  | 90.4 ± 1.6% |  |  |  |  |  |  |  | 
14 | CN1C(=O)c2ccccc2C(=O)N(CCCCCC(=O)NO)c2ccccc21 [Compound 7m] | 5090 ± 300 nM | 4450 ± 960 nM | 95 to 96 °C |  | 72.7 ± 5.2% |  |  |  |  |  |  |  | 
15 | CN1C(=O)c2ccccc2N(CC(=O)NO)C(=O)c2ccccc21 [Compound 7a] | > 50000 nM | > 50000 nM | 233 to 234 °C |  | 95.6 ± 1.4% |  |  |  |  |  |  |  | 
16 | O=C(CCN1C(=O)c2ccccc2C=Cc2ccccc21)NO [Compound 7h] | 32600 ± 4780 nM | > 50000 nM | 173 to 174 °C |  | 87.5 ± 1.2% |  |  |  |  |  |  |  | 
17 | CN1C(=O)c2cc(Cl)c(Cl)cc2C(=O)N(CCCCCC(=O)NO)c2ccccc21 [Compound 7n] | 2560 ± 980 nM | 2850 ± 340 nM | 104 to 105 °C |  | 68.3 ± 2.8% |  |  |  |  |  |  |  | 
18 | O=C(CCCCCN1C(=O)c2ccccc2CCc2ccccc21)NO [Compound 7p] | 318 ± 98 nM | 200 ± 73 nM | 164 to 165 °C | 309 ± 35 nM | 21.5 ± 1.6% | 3140 ± 420 nM | 3.27 | 5.20 | 1210 ± 240 nM | 0.86 | 661 ± 120 nM | 1.57 | 1040 ± 280 nM
19 | CN1C(=O)c2ccccc2N(CCCCCCC(=O)NO)C(=O)c2ccccc21 [Compound 7f] | 4830 ± 1960 nM | 4450 ± 340 nM | 145 to 146 °C |  | 66.1 ± 4.1% |  |  |  |  |  |  |  | 
